Results on six compounds are retold here after patent US5264445A, “(-)-N"-cyano-N-3-pyridyl-N'-1,2,2-trimethylpropylguanidine” (Eli Lilly and Company, priority 1992, dated 1993).

The test system of one test is Purkinje fiber. In words: Purkinje fiber assay: reducing the Purkinje fiber action potential duration. In kind it is cell-based. As to conditions: reducing canine Purkinje fiber action potential duration in vitro, ±SEM. How it is done: (§1) All six compounds were tested in the Purkinje fiber and canine cephalic vein assays taught by Steinberg et al., Journal of Cardiovascular Pharmacology, 12 (Suppl. 2), S30-S40 (1988). The effective concentration for reducing the Purkinje fiber action potential duration and for relaxing phenylephrine-contracted cephalic veins, respectively, otherwise known as the EC50, was determined for each compound and is reported in Table I.

Test [1] relates to phenylephrine-contracted cephalic veins. In words: Canine cephalic vein assay: relaxing phenylephrine-contracted cephalic veins. Particulars: relaxing phenylephrine-contracted canine cephalic veins in vitro, ±SEM. In kind it is cell-based. How it is done: as §1
Test [2] concerns spontaneously hypertensive rats. Particulars: cited from earlier work.
Test [3] concerns potassium channels. In words: Potency as potassium channel opener (comparison of isomers). Particulars: compared with its (+) enantiomer, pinacidil, or any of the pinacidil enantiomers. The source says:
Pinacidil is currently undergoing clinical trials to determine its antihypertensive potential. By virtue of the branched N-alkyl side chain, pinacidil is a mixture of two enantiomers. Recently, both enantiomers have been prepared and studied -- see, Weston et al., Drugs, 36 (Suppl. 7), 10 (1988).

The test system of test [4] is potassium channels. As to conditions: reported by Weston et al., Drugs, 36 (Suppl. 7), 10 (1988); cited from earlier work.
[5] abbreviates: Canis lupus familiaris, purkinje.

For the compound `CC(N/C(=N\C#N)Nc1ccncc1)C(C)(C)C` (racemic) [(±)-Pinacidil, N"-cyano-N-4-pyridyl-N'-1,2,2-trimethylpropylguanidine], the EC50 (commonly the concentration at which the effect is half-maximal) was 3000 ± 1000 nM with Purkinje fiber (setting [5]) and 760 ± 120 nM in test [1] (Canis lupus familiaris). In test [2], the “minimal effective dose (MED) to decrease blood pressure” value is reported as 0.5 mg/kg.
Turning to `CC(NC(=NC#N)Nc1cccnc1)C(C)(C)C` (racemic) [N"-cyano-N-3-pyridyl-N'-1,2,2-trimethylpropylguanidine], the EC50 in the test with Purkinje fiber (setting [5]) came to 500 ± 30 nM; in test [1] (Canis lupus familiaris), 560 ± 140 nM. Besides, in test [2], the “minimal effective dose (MED) to decrease blood pressure” value is reported as 1 mg/kg.
Consider `CC(NC(=NC#N)Nc1cccnc1)C(C)(C)C` (single isomer, unassigned; (+)) [(+)-N"-cyano-N-3-pyridyl-N'-1,2,2-trimethylpropylguanidine], for which the EC50 was determined as 23000 ± 4700 nM in the test with Purkinje fiber and 6410 ± 1800 nM in test [1].
With `CC(NC(=NC#N)Nc1ccncc1)C(C)(C)C` (single isomer, unassigned; (+)) [(+)-Pinacidil], the EC50 in the test with Purkinje fiber is 55000 ± 9600 nM; in test [1], 9550 ± 70 nM.
For the compound `CC(NC(=NC#N)Nc1cccnc1)C(C)(C)C` (single isomer, unassigned; (-)) [(-)-N"-cyano-N-3-pyridyl-N'-1,2,2-trimethylpropylguanidine], the EC50 in the test with Purkinje fiber is 430 ± 260 nM; in test [1], 90 ± 30 nM. Also, in the test on potassium channels [3], the “relative potency as a potassium channel opener” value was “considerably more potent”.
For `CC(NC(=NC#N)Nc1ccncc1)C(C)(C)C` (single isomer, unassigned; (-)) [(-)-Pinacidil], the “relative potency of pinacidil enantiomers” value in the test with potassium channels [4] is on record as “more potent than the (+) isomer”. For the same compound, the figures for the half-maximal effective concentration (EC50) (in the test on Purkinje fiber; in test [1]) were 3200 ± 1200 nM and 440 ± 100 nM, respectively.
